Data published in patent US11052162B2, “Liposomal gadolinium (GD) contrast agent “NMRX” for T1-MRI” (TEXAS CHILDREN'S HOSPITAL, priority 2016, dated 2021).

Columns and labels:
[1] = test system: pregnant Sprague Dawley rats; experiment: DCE-MRI visualization of the retroplacental space; type: in vivo, rat; details: 0.15 mmol Gd/kg, 20 minute post-contrast acquisition
Method: In the study with the conventional Gd contrast agent, dynamic contrast enhanced MRI (DCE-MRI) was performed using gadoterate meglumine (Gd-DOTA, Dotarem®) to evaluate visualization of the retroplacental space. DCE-MRI was performed using a T1w 2D gradient echo sequence (GRE) sequence with the following scan parameters: TE=3.5 ms, TR=15 ms, FA=25, slice thickness=0.8 or 1.6 mm, NEX=12; temporal resolution=47 s. Four non-contrast, baseline images were acquired followed by bolus intravenous administration of gadoterate meglumine (0.15 mmol Gd/kg). Post-contrast imaging was continued for upto 20 minutes after administration of gadoterate meglumine. In order to directly compare image quality between the two contrast agents, liposomal-Gd contrast agent (0.15 mmol Gd/kg) was administered a minimum of three hours later, allowing clearance of gadoterate meglumine. Post-liposomal-Gd contrast images were acquired using the same DCE-MRI protocol.
Pre-contrast and post-contrast scans were reviewed by a trained maternal-fetal radiologist (˜10 years of experience). T1 weighted GRE images and T2 weighted FSE images were included in the review. […] The visibility of target features in T1w and T2w images were scored by the radiologist on a 3-point scale: 0=not visible, 1=partly visible and 2=clearly visible. […]

[2] = Relaxivity (r1) by variable flip angle technique at 9.4 T; type: physicochemical
Method: (§1) While the liposomal contrast agent has slow clearance, Multihance® clears rapidly, and timing the image acquisition is critical. We therefore opted to use the DCE-MRI technique to collect a series of images, from which the optimal time point could be selected. DCE-MRI experiments were performed on a horizontal bore 9.4 T Bruker Avance III, 20 cm bore Biospec Spectrometer (Karlsruhe, Germany) with a micro-imaging probe capable of generating gradients of (1000 mT/m). Prior to the in vivo study, the relaxivity of both agents was measured using the variable flip angle technique described in Appendix A. Similarly, the baseline relaxation rates, T1(O), for placenta and fetus were measured using the same pulse sequence as described in Appendix A.

[3] = Placental and fetal contrast agent concentration and uptake from DCE-MRI data; type: in vivo, mouse
From the text: The image data was used to calculate absolute Gd concentrations using the methods in Appendix A. Contrast agent concentrations estimated from the MRI data are shown in Table 2-2 using Eqs. A4 and A5.
For the DCE-MRI study, baseline images without contrast enhancement were acquired, followed by a series of images acquired over time during and after the arrival of the contrast agent in the tissue of interest. A 3D-spoiled gradient recalled echo (SPGRE) pulse sequence with a fixed flip angle of 16 degrees was used over 175 measurements. Other parameters are described in Appendix A. The time for a single measurement was 9.25 seconds. Two minutes into the experiment, contrast was injected. Total scan time was 26 minutes and 52 seconds. The acquired signal was used to generate a time-intensity curve and the signal was converted pixel-by-pixel into concentration of the injected agent.
MRI data was transferred to an offline workstation and each placental and fetal compartment was segmented as a separate region of interest (ROI) using AMIRA V5.6 software (FEI Visualization Sciences Group, Hillsboro, Oreg.). The segmented regions were transferred to Matlab (Matlab 7.6.0, MathWorks, Natick, Mass., USA) to create a pixel-by-pixel T1(0) map and T1(t) map as described in Appendix A. Two placental zones were identified visually from the signal enhancement pattern: the labyrinth zone characterized by early flow enhancement and a peripheral region (maternal decidua) characterized by late flow enhancement that began after the central labyrinth enhancement peaked. The two zones together constitute the entire placenta.

pregnant Balb/c mice = experiment: Blinded reader rating of placental visibility in DCE-MRI; type: in vivo, mouse
Method: The trans-placental permeability of liposomal gadolinium (Gd) nanoparticle contrast agents was evaluated in a pregnant mouse model. Pregnant Balb/c mice at 16.5 (±1) days of gestation were imaged using a 3D Spoiled Gradient Echo method at 9.4 T using two contrast agents: a clinically approved Gd chelate, Multihance® (gadobenate dimeglumine), and a novel experimental liposomal Gd agent. A Dynamic Contrast Enhancement (DCE) protocol was used to capture the dynamics of contrast entry and distribution in the placenta, and clearance from circulation. A blinded clinical radiologist evaluated both sets of images. A reference region model was used to measure the placental flow and physiological parameters; volume transfer constant (Ktrans), efflux rate constant (Kep). The Gd content of excised placentae and fetuses was measured, using inductively coupled plasma mass spectrometry (ICP-MS). […] Image interpretation and diagnostic quality was equivalent between the two contrast agents.
(§2) 25 female Balb/c mice (7-9 weeks old; average weight 26 grams before pregnancy) were used in this study. Animals were mated with same strain males. The day when a vaginal copulation plug was detected was designated as day 0.5. Pregnant mice were imaged at day 16.5±1. Mice were sacrificed (under the institutional euthanasia protocol) immediately after MRI data collection (except for two mice that received the liposomal Gd agent, and were maintained alive for 72 hours, allowing additional time for possible transport of Gd to the fetus, and then sacrificed). Mice were dissected and the placentae and fetuses removed and transferred individually to 2 ml polycarbonate vials for storage at −81° C. These placentae and fetuses were analyzed using ICP-MS for the direct measurement of Gd concentration.
Animals were anesthetized with 4% Isofluorane/air and transferred supine to the animal-imaging cradle. A 28-gauge catheter was placed in the tail vein. Once transferred to the imaging instrument, isofluorane (2%) was administered continuously via a nose cone. A pressure sensitive pillow was placed on the abdomen and taped in place to monitor respiration. The animal chamber of the imaging probe was maintained at around 30-33° C. The magnet room was maintained at 25-27° C. Heart rate was maintained at steady 50-60 beats-per-minute by adjusting the airflow and isofluorane concentration. MR imaging was performed with Multihance® in 14 mice. Liposomal Gd was used in 9 mice. Two mice were injected with saline as a control for comparison. Contrast agents were diluted to 20 mM and a dose of 0.08 mmol/kg (typically around 100 μL) were prepared for this study. The contrast agent was injected manually by the same operator (3 years of experience with small animals) and at the same rate in each mouse.
as §1
For the DCE-MRI study, baseline images without contrast enhancement were acquired, followed by a series of images acquired over time during and after the arrival of the contrast agent in the tissue of interest. A 3D-spoiled gradient recalled echo (SPGRE) pulse sequence with a fixed flip angle of 16 degrees was used over 175 measurements. Other parameters are described in Appendix A. The time for a single measurement was 9.25 seconds. […]

[4] = Gadolinium assay by ICP-MS of placentae and fetuses; type: in vivo, mouse
Method: as §2
Wet tissue from placentae or pups was chopped with a scalpel into ˜3 mm pieces. A known mass of chopped tissue was then dissolved in 2-4 ml of concentrated nitric acid (14N) and heated at 100° C. till tissue completely dissolved. (Usually, about 30-45 minutes at room temperature and 3 minutes at 100° C. were sufficient). The acid solution was diluted with 10 ml of DI water, causing some precipitation of organic material. The material was centrifuged at 3000 g for 5-10 minutes, and the supernatant used for analysis. Serial dilutions over a 10^6 range were then made, and spiked with an internal standard of Bi 10 parts per billion (ppb) in 2% nitric acid. ICP-MS analysis was conducted on a Varian 810 ICP-MS system, using the manufacturer's recommended protocol for Gd assay. A spike-recovery study on blank tissue yielded linear response with >90% recovery over a range of 0-900 ppb and >96% response over a range of 0-50 ppb.

[5] = placentae rated by blinded reader, 5-point scale, 9.4 T

relaxivity (r1) [2] [s/mM] | Placental concentration ([3]; gadolinium peak from MRI data, mean, ROI around entire placenta, 0.08 mmol/kg) [µmol/L] | Fetal concentration ([3]; gadolinium peak from MRI data, mean, ROI around fetal sac, 0.08 mmol/kg) [µmol/L] | time of image intensity peak after injection (pregnant Balb/c mice; DCE-MRI) [s] | Gd concentration in placentae and fetuses versus detection limit ([4]; 45 minutes and 90 minutes post injection, detection limit 0.318 nmol/g tissue) | Placental and fetal Gd concentrations, factor of each other ([4]; 90 minutes post-injection) | transplacental permeation ([4]; MRI images and ICP-MS analyses of placental and fetal tissue) | Compound | visualization of the retroplacental space [1] | uptake of contrast agent in the fetal compartment ([3]; MRI, liposomal Gd even after 72 hr exposure) | Number observed with Placenta Visibility 1 (pregnant Balb/c mice; [5]) | Number observed with Placenta Visibility 2 (pregnant Balb/c mice; [5]) | Number observed with Placenta Visibility 3 (pregnant Balb/c mice; [5]) | Number observed with Placenta Visibility 4 (pregnant Balb/c mice; [5]) | Number observed with Placenta Visibility 5 (pregnant Balb/c mice; [5]) | Placental and fetal Gd concentrations relative to each other ([4]; 45 minutes post-injection)
 |  |  |  |  |  |  | CNC[C@H](O)[C@@H](O)[C@H](O)[C@H](O)CO.O=C([O-])CN1CCN(CC(=O)[O-])CCN(CC(=O)O)CCN(CC(=O)[O-])CC1.[Gd+3] [gadoterate meglumine] | no consistent and reproducible visualization of the retroplacental space |  |  |  |  |  |  | 
3.99 ± 0.52 | 0.60 ± 0.51 | 0.027 ± 0.01 | 11 to 15 | above the detection limit | ≤ 2 | avidly permeated the placental barrier | CNC[C@H](O)[C@@H](O)[C@H](O)[C@H](O)CO.CNC[C@H](O)[C@@H](O)[C@H](O)[C@H](O)CO.O=C([O-])CN(CCN(CC(=O)[O-])CC(=O)O)CCN(CC(=O)O)C(COCc1ccccc1)C(=O)[O-].[Gd+3] (stereo not drawn) [Multihance, gadobenate dimeglumine] |  | uptake of contrast agent in the fetal compartment was observed | 1 | 6 | 25 | 15 | 7 | within an order of magnitude of each other
